“And” between values parts separate entries of the source, which are not always exact repeats. Equal values may be shown once.
Legend:
Assay in all cases: biochemical
Assay type in all cases: binding
[1] = target: SfurOBP1 (Sogatella furcifera, UniProt V5T8N5); details: for Fluorescence competitive binding assay, fluorescence intensity: OBP1, three replicate columns
How it was run: (§1)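 K1-NPN came from titrating 2.0 µM protein (50 mM Tris-HCl, pH 7.4) with 1-NPN. Odorants at 2-20 µM then competed against 2.0 µM protein plus 2.0 µM 1-NPN for 2 min, with excitation at 337 nm and emission recorded over 390-490 nm. IC50 values were converted to Ki via Ki = IC50/(1 + [1-NPN]/K1-NPN).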

[2] = target: SfurOBP3 (Sogatella furcifera, UniProt V5T818); details: for Fluorescence competitive binding assay, fluorescence intensity: OBP3, three replicate columns
Sequence of SfurOBP3 (V5T818 entry or part of it): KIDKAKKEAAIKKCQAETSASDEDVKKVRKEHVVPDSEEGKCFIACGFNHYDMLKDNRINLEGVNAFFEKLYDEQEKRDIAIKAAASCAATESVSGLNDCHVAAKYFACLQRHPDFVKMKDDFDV
How it was run: as §1

[3] = target: SfurOBP11 (Sogatella furcifera, UniProt V5T6E3)
Sequence of SfurOBP11 (V5T6E3 entry or part of it): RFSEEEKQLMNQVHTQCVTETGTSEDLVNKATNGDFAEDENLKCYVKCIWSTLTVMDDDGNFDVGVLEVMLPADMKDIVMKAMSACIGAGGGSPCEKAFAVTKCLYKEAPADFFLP
How it was run: as §1

[4] = target: SfurOBP2 (Sogatella furcifera, UniProt V5T759)
Sequence of SfurOBP2 (V5T759 entry or part of it): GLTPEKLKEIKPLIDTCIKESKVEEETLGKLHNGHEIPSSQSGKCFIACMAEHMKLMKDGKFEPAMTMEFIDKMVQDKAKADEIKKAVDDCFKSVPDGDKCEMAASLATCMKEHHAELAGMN
How it was run: as §1

Sequence of SfurOBP1 (V5T8N5 entry or part of it): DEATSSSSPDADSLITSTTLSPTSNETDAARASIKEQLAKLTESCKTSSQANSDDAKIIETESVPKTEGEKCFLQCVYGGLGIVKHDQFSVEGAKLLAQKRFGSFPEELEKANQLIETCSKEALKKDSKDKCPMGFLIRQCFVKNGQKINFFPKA

Fluorescence competitive binding assay, fluorescence intensity ([1]; ligand concentration 2 (μM)): 13439 and 10181 and 10387 | Fluorescence competitive binding assay, fluorescence intensity ([1]; ligand concentration 4 (μM)): 12999 and 14054 and 13054 | Fluorescence competitive binding assay, fluorescence intensity ([1]; ligand concentration 6 (μM)): 17843 and 17435 and 18755 | Fluorescence competitive binding assay, fluorescence intensity ([1]; ligand concentration 8 (μM)): 20344 and 21618 and 19391 | Fluorescence competitive binding assay, fluorescence intensity ([1]; ligand concentration 10 (μM)): 25143 and 20920 and 29597 | Fluorescence competitive binding assay, fluorescence intensity ([1]; ligand concentration 12 (μM)): 25050 and 26471 and 24718 | Fluorescence competitive binding assay, fluorescence intensity ([1]; ligand concentration 14 (μM)): 31790 and 28307 and 28799 | Fluorescence competitive binding assay, fluorescence intensity ([1]; ligand concentration 16 (μM)): 25660 and 26360 and 27874 | Fluorescence competitive binding assay, fluorescence intensity ([1]; ligand concentration 18 (μM)): 34663 and 37908 and 36994 | Fluorescence competitive binding assay, fluorescence intensity ([1]; ligand concentration 20 (μM)): 37718 and 33824 and 31648 | IC50 ([1]; SfurOBP1, protein and 1-NPN both 2.0 µM, competitor 2-20 µM, read-out: IC50): > 20 µM | Fluorescence competitive binding assay, fluorescence intensity ([2]; ligand concentration 2): 87733 and 85025 and 77897 | Fluorescence competitive binding assay, fluorescence intensity ([2]; ligand concentration 4): 115777 and 106868 and 104692 | Fluorescence competitive binding assay, fluorescence intensity ([2]; ligand concentration 6): 125530 and 125631 and 129726 | Fluorescence competitive binding assay, fluorescence intensity ([2]; ligand concentration 8): 107521 and 145667 and 147221 | Fluorescence competitive binding assay, fluorescence intensity ([2]; ligand concentration 10): 173091 and 157740 and 127122 | Fluorescence competitive binding assay, fluorescence intensity ([2]; ligand concentration 12): 158103 and 182941 and 142916 | Fluorescence competitive binding assay, fluorescence intensity ([2]; ligand concentration 14): 176147 and 111843 and 160442 | Fluorescence competitive binding assay, fluorescence intensity ([2]; ligand concentration 16): 151941 and 158990 and 157774 | Fluorescence competitive binding assay, fluorescence intensity ([2]; ligand concentration 18): 173084 and 168625 and 167342 | Fluorescence competitive binding assay, fluorescence intensity ([2]; ligand concentration 20): 193319 and 125518 and 175321 | IC50 ([2]; SfurOBP3, protein and 1-NPN both 2.0 µM, competitor 2-20 µM, read-out: IC50): > 20 µM | IC50 ([3]; SfurOBP11, protein and 1-NPN both 2.0 µM, competitor 2-20 µM, read-out: IC50): > 20 µM | Fluorescence intensity, fluorescence competitive binding assay, OBP11 ([3]; ligand concentration 2, replicate 1): 43164 | Fluorescence intensity, fluorescence competitive binding assay, OBP11 ([3]; ligand concentration 2, replicate 2): 38605 | Fluorescence intensity, fluorescence competitive binding assay, OBP11 ([3]; ligand concentration 2, replicate 3): 37407 | Fluorescence intensity, fluorescence competitive binding assay, OBP11 ([3]; ligand concentration 4, replicate 1): 45394 | Fluorescence intensity, fluorescence competitive binding assay, OBP11 ([3]; ligand concentration 4, replicate 2): 44519 | Fluorescence intensity, fluorescence competitive binding assay, OBP11 ([3]; ligand concentration 4, replicate 3): 44324 | Fluorescence intensity, fluorescence competitive binding assay, OBP11 ([3]; ligand concentration 6, replicate 1): 52018 | Fluorescence intensity, fluorescence competitive binding assay, OBP11 ([3]; ligand concentration 6, replicate 2): 51596 | Fluorescence intensity, fluorescence competitive binding assay, OBP11 ([3]; ligand concentration 6, replicate 3): 52439 | Fluorescence intensity, fluorescence competitive binding assay, OBP11 ([3]; ligand concentration 8, replicate 1): 52547 | Fluorescence intensity, fluorescence competitive binding assay, OBP11 ([3]; ligand concentration 8, replicate 2): 53605 | Fluorescence intensity, fluorescence competitive binding assay, OBP11 ([3]; ligand concentration 8, replicate 3): 57390 | Fluorescence intensity, fluorescence competitive binding assay, OBP11 ([3]; ligand concentration 10, replicate 1): 53386 | Fluorescence intensity, fluorescence competitive binding assay, OBP11 ([3]; ligand concentration 10, replicate 2): 50348 | Fluorescence intensity, fluorescence competitive binding assay, OBP11 ([3]; ligand concentration 10, replicate 3): 61467 | Fluorescence intensity, fluorescence competitive binding assay, OBP11 ([3]; ligand concentration 12, replicate 1): 60450 | Fluorescence intensity, fluorescence competitive binding assay, OBP11 ([3]; ligand concentration 12, replicate 2): 60637 | Fluorescence intensity, fluorescence competitive binding assay, OBP11 ([3]; ligand concentration 12, replicate 3): 60823 | Fluorescence intensity, fluorescence competitive binding assay, OBP11 ([3]; ligand concentration 14, replicate 1): 64649 | Fluorescence intensity, fluorescence competitive binding assay, OBP11 ([3]; ligand concentration 14, replicate 2): 70642 | Fluorescence intensity, fluorescence competitive binding assay, OBP11 ([3]; ligand concentration 14, replicate 3): 65311 | Fluorescence intensity, fluorescence competitive binding assay, OBP11 ([3]; ligand concentration 16, replicate 1): 64270 | Fluorescence intensity, fluorescence competitive binding assay, OBP11 ([3]; ligand concentration 16, replicate 2): 67002 | Fluorescence intensity, fluorescence competitive binding assay, OBP11 ([3]; ligand concentration 16, replicate 3): 65982 | Fluorescence intensity, fluorescence competitive binding assay, OBP11 ([3]; ligand concentration 18, replicate 1): 78706 | Fluorescence intensity, fluorescence competitive binding assay, OBP11 ([3]; ligand concentration 18, replicate 2): 81987 | Fluorescence intensity, fluorescence competitive binding assay, OBP11 ([3]; ligand concentration 18, replicate 3): 75370 | Fluorescence intensity, fluorescence competitive binding assay, OBP11 ([3]; ligand concentration 20, replicate 1): 97463 | Fluorescence intensity, fluorescence competitive binding assay, OBP11 ([3]; ligand concentration 20, replicate 2): 75326 | Fluorescence intensity, fluorescence competitive binding assay, OBP11 ([3]; ligand concentration 20, replicate 3): 72923 | IC50 ([4]; SfurOBP2, protein and 1-NPN both 2.0 µM, competitor 2-20 µM, read-out: IC50): > 20 µM | Fluorescence competitive binding assay, OBP2 (raw fluorescence reading) ([4]; ligand concentration 2 (unit not given), replicate column 1 of 3): 18915 | Fluorescence competitive binding assay, OBP2 (raw fluorescence reading) ([4]; ligand concentration 2 (unit not given), replicate column 2 of 3): 20597 | Fluorescence competitive binding assay, OBP2 (raw fluorescence reading) ([4]; ligand concentration 2 (unit not given), replicate column 3 of 3): 23440 | Fluorescence competitive binding assay, OBP2 (raw fluorescence reading) ([4]; ligand concentration 4 (unit not given), replicate column 1 of 3): 24181 | Fluorescence competitive binding assay, OBP2 (raw fluorescence reading) ([4]; ligand concentration 4 (unit not given), replicate column 2 of 3): 28014 | Fluorescence competitive binding assay, OBP2 (raw fluorescence reading) ([4]; ligand concentration 4 (unit not given), replicate column 3 of 3): 25410 | Fluorescence competitive binding assay, OBP2 (raw fluorescence reading) ([4]; ligand concentration 6 (unit not given), replicate column 1 of 3): 34688 | Fluorescence competitive binding assay, OBP2 (raw fluorescence reading) ([4]; ligand concentration 6 (unit not given), replicate column 2 of 3): 31794 | Fluorescence competitive binding assay, OBP2 (raw fluorescence reading) ([4]; ligand concentration 6 (unit not given), replicate column 3 of 3): 34987 | Fluorescence competitive binding assay, OBP2 (raw fluorescence reading) ([4]; ligand concentration 8 (unit not given), replicate column 1 of 3): 33082 | Fluorescence competitive binding assay, OBP2 (raw fluorescence reading) ([4]; ligand concentration 8 (unit not given), replicate column 2 of 3): 40303 | Fluorescence competitive binding assay, OBP2 (raw fluorescence reading) ([4]; ligand concentration 8 (unit not given), replicate column 3 of 3): 37763 | Fluorescence competitive binding assay, OBP2 (raw fluorescence reading) ([4]; ligand concentration 10 (unit not given), replicate column 1 of 3): 37285 | Fluorescence competitive binding assay, OBP2 (raw fluorescence reading) ([4]; ligand concentration 10 (unit not given), replicate column 2 of 3): 44653 | Fluorescence competitive binding assay, OBP2 (raw fluorescence reading) ([4]; ligand concentration 10 (unit not given), replicate column 3 of 3): 45169 | Fluorescence competitive binding assay, OBP2 (raw fluorescence reading) ([4]; ligand concentration 12 (unit not given), replicate column 1 of 3): 40538 | Fluorescence competitive binding assay, OBP2 (raw fluorescence reading) ([4]; ligand concentration 12 (unit not given), replicate column 2 of 3): 46457 | Fluorescence competitive binding assay, OBP2 (raw fluorescence reading) ([4]; ligand concentration 12 (unit not given), replicate column 3 of 3): 42564 | Fluorescence competitive binding assay, OBP2 (raw fluorescence reading) ([4]; ligand concentration 14 (unit not given), replicate column 1 of 3): 47395 | Fluorescence competitive binding assay, OBP2 (raw fluorescence reading) ([4]; ligand concentration 14 (unit not given), replicate column 2 of 3): 46610 | Fluorescence competitive binding assay, OBP2 (raw fluorescence reading) ([4]; ligand concentration 14 (unit not given), replicate column 3 of 3): 49253 | Fluorescence competitive binding assay, OBP2 (raw fluorescence reading) ([4]; ligand concentration 16 (unit not given), replicate column 1 of 3): 41133 | Fluorescence competitive binding assay, OBP2 (raw fluorescence reading) ([4]; ligand concentration 16 (unit not given), replicate column 2 of 3): 50168 | Fluorescence competitive binding assay, OBP2 (raw fluorescence reading) ([4]; ligand concentration 16 (unit not given), replicate column 3 of 3): 50416 | Fluorescence competitive binding assay, OBP2 (raw fluorescence reading) ([4]; ligand concentration 18 (unit not given), replicate column 1 of 3): 50240 | Fluorescence competitive binding assay, OBP2 (raw fluorescence reading) ([4]; ligand concentration 18 (unit not given), replicate column 2 of 3): 52962 | Fluorescence competitive binding assay, OBP2 (raw fluorescence reading) ([4]; ligand concentration 18 (unit not given), replicate column 3 of 3): 54896 | Fluorescence competitive binding assay, OBP2 (raw fluorescence reading) ([4]; ligand concentration 20 (unit not given), replicate column 1 of 3): 51479 | Fluorescence competitive binding assay, OBP2 (raw fluorescence reading) ([4]; ligand concentration 20 (unit not given), replicate column 2 of 3): 53666 | Fluorescence competitive binding assay, OBP2 (raw fluorescence reading) ([4]; ligand concentration 20 (unit not given), replicate column 3 of 3): 47381
SMILES: CCCCCCCCCCOCCCCCCCCCC [didecyl ether]
